Legend:
[1] = Metabolism of 14C-parent in dog liver microsomes; format: in vitro ADME; conditions: 20 μM 14C-parent, NADPH, 30 minutes, 37° C.; HPLC radiochromatogram peak
Procedure: (§1) Human (HL-mix 12), rat, monkey and dog liver microsomes were prepared by differential centrifugation using standard procedures. Prior to use, liver microsomes were thawed on ice and reconstituted using 100 mM potassium phosphate pH 7.4. [^14C]-(3-{[4-tert-butyl-benzyl)-(pyridine-3-sulfonyl)-amino]-methyl}-phenoxy)-acetic acid was dissolved 100 mM potassium phosphate pH 7.4 at a final substrate concentration of 20 μM. Samples were pre-incubated for 3 min with microsomes (CYP 450; 0.5 μM) at 37° C. in a shaking water bath. Incubations were initiated with the addition of 100 μl cofactor (1.1 mM NADPH, 10 mM MgCl2) per 1 ml of incubation mixture. Incubations were stopped after 30 minutes by the addition of an equal volume of cold acetonitrile.
(§2) Metabolite quantification was performed by measuring the areas of individually separated HPLC peaks using the β-RAM (IN/US, Win-flow). […]
(§3) Identification of the metabolites was performed using a Finnigan TSQ 7000 triple quadrupole mass spectrometer equipped with an API-2 electrospray interface. […] The β-RAM response was recorded as a real time analog signal by the MS data collection system. The collected data from the radioactivity and MS detectors were separated by the dwell volume of flow from the MS to the radioactivity detector (corresponding to a dwell time of about 0.2 min.). […]

[2] = target: T1, rat EP2 prostaglandin E2 receptor (Rattus norvegicus, UniProt Q62928); experiment: Rat EP2 receptor binding assay (displacement of 3H-prostaglandin E2); conditions: 293S cell membranes expressing rat EP2, 3 nM 3H-prostaglandin E2, 1 hour at 25° C.
T1 construct: This full length receptor is used to prepare 293S cells expressing the EP2 receptor; expressed in transfected cells; membranes used in the assay
T1 sequence (Q62928 whole entry): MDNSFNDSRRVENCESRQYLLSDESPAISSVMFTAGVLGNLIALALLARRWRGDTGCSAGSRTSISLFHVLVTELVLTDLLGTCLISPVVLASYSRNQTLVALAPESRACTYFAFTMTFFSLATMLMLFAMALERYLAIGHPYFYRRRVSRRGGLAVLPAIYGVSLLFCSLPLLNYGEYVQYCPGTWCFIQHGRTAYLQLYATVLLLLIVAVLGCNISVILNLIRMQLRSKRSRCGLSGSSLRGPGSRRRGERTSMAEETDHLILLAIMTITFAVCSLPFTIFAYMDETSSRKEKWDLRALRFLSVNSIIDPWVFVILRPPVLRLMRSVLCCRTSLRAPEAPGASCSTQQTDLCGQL
Excerpt: Rat EP2 Recptor Binding Assay
Assay for Binding to Prostaglandin E2 Receptors
The full length EP2 receptor is made as disclosed in Nemoto et al., Prostaglandins and other Lipid Mediators, 1997, 54, 713-725. This full length receptor is used to prepare 293S cells expressing the EP2 receptor.
293S cells expressing the rat EP2 prostaglandin E2 receptor are generated according to methods known to those skilled in the art. Typically, PCR (polymerase chain reaction) primers corresponding to the 5′ and 3′ ends of the published full length receptor are made according to the well known methods disclosed above and are used in an RT-PCR reaction using the total RNA from rat kidney as a source. […]
Membrane Preparation: All operations are performed at 4° C. […] Pelleted membranes are resuspended to 3-10 mg protein per ml, protein concentration being determined of the method of Bradford [Bradford, M., Anal. Biochem., 72, 248 (1976)]. […]
Binding Assay: Frozen membranes prepared as above are thawed and diluted to 1 mg protein per ml in Buffer A above. […] To determine the amount of ^3H-prostaglandin bound to the membranes, the dried filters are placed into plastic bags with scintillation fluid and counted in a LKB 1205 Betaplate reader (Wallac, Gaithersburg, Md.). […]

[3] = Metabolism of 14C-parent in rat liver microsomes; format: in vitro ADME; conditions: 20 μM 14C-parent, NADPH, 30 minutes, 37° C.; HPLC radiochromatogram peak
Procedure: as §1, §2, §3

[4] = Metabolism of 14C-parent in monkey liver microsomes; format: in vitro ADME; conditions: 20 μM 14C-parent, NADPH, 30 minutes, 37° C.; HPLC radiochromatogram peak
Procedure: as §1, §2, §3

[5] = Metabolism of 14C-parent in human liver microsomes; format: in vitro ADME; conditions: 20 μM 14C-parent, NADPH, 30 minutes, 37° C.; HPLC radiochromatogram peak
Procedure: as §1, §2, §3

## CC(C)(CO)c1ccc(CN(Cc2cccc(OCC(=O)O)c2)S(=O)(=O)c2cccnc2)cc1 [Metabolite M4, (3-{[[4-(2-hydroxy-1,1-dimethyl-ethyl)-benzyl]-(pyridine-3-sulfonyl)-amino]-methyl}-phenoxy)-acetic acid]
[1]
  Percent of Radioactivity, Dog liver microsomes: 11.5%
[2]
  IC50: 170 nM
[3]
  Percent of Radioactivity, Rat liver microsomes: 4.38%
[4]
  Percent of Radioactivity, Monkey liver microsomes: 47.3%
[5]
  Percent of Radioactivity, Human liver microsomes: 26.5%
